# Assay results: patent US10611730B2, “Benzimidazolone and benzothiazolone compounds and their use as AMPA receptor modulators” (Janssen Pharmaceutica NV, priority 2015, dated 2020)
# Target: TARP γ8 dependent AMPA receptor (GluA1o-g8 fusion channel) (Homo sapiens (Human), UniProt P42261+Q8WXS5)
# Assay: Calcium flux assay (FLIPR), HEK293 cells expressing GRIA1o-CACNG8 fusion
# Type: cell-based
# Settings: inhibition of calcium flux after 15 μM glutamate, read-out: GluR1-γ8 pIC50 (converted)
# How it was run: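 Stable HEK293 clone expressing GluA1o-γ8 fusion (1:1 stoichiometry), loaded with Calcium-5/6 dye plus test compound; glutamate-evoked fluorescence normalized to control wells. Concentration-response fitted to four-parameter logistic, midpoint taken as inhibitory potency.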
# TARP γ8 dependent AMPA receptor (GluA1o-g8 fusion channel), sequence (P42261 other isoform, or with tags, fused parts or gaps): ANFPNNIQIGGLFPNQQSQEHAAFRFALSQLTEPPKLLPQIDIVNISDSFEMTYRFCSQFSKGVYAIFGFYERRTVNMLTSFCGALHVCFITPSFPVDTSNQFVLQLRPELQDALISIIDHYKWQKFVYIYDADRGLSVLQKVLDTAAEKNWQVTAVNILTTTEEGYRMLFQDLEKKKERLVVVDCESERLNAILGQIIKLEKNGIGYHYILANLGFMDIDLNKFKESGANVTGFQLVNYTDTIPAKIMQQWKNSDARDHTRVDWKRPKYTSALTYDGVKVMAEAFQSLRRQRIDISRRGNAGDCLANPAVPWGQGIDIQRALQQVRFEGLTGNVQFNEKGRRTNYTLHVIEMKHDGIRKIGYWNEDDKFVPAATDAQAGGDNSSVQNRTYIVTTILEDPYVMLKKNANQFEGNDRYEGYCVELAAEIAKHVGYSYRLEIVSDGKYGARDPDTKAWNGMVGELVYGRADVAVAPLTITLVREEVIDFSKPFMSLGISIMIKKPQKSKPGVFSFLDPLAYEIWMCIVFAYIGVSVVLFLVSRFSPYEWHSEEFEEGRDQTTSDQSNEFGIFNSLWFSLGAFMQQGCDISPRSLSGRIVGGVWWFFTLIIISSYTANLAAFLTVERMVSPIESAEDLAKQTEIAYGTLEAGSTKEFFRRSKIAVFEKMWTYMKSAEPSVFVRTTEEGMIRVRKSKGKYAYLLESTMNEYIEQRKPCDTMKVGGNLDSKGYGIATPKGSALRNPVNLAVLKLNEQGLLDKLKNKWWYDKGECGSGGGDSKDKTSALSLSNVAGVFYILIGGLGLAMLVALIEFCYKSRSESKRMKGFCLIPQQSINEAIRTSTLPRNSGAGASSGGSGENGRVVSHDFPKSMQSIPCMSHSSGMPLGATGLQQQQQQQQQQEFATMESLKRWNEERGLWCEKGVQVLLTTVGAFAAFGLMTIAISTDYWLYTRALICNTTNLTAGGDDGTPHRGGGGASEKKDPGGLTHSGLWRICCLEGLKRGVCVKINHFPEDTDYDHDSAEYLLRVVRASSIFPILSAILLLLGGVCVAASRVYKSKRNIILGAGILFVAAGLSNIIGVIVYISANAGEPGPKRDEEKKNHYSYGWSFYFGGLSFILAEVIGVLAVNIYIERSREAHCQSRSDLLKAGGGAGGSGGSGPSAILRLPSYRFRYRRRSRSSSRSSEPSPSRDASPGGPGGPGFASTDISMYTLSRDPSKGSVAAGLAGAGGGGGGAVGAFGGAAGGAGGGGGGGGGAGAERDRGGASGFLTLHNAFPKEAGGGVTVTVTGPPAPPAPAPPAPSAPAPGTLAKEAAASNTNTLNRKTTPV
row,IC50,Compound
1,6.31 µM,"Cc1c(CN2CC(F)C2)cccc1-c1ccc2[nH]c(=O)[nH]c2c1 [Example 157, 5-[3-[(3-Fluoroazetidin-1-yl)methyl]-2-methyl-phenyl]-1,3-dihydrobenzimidazol-2-one]"
2,0.0316 µM,"C=Cc1cccc(Cl)c1-c1ccc2[nH]c(=O)[nH]c2c1 [Example 161, 5-(2-Chloro-6-vinyl-phenyl)-1,3-dihydrobenzimidazol-2-one]"
3,0.02 µM,"O=c1[nH]c2ccc(-c3c(Cl)cccc3-c3ccccc3)cc2[nH]1 [Example 162, 5-(2-Chloro-6-phenyl-phenyl)-1,3-dihydrobenzimidazol-2-one]"
4,0.02 µM,"O=c1[nH]c2ccc(-c3c(Cl)cccc3-c3ccc(F)cc3)cc2[nH]1 [Example 163, 5-[2-Chloro-6-(4-fluorophenyl)phenyl]-1,3-dihydrobenzimidazol-2-one]"
5,0.0398 µM,"N#Cc1ccc(-c2cccc(Cl)c2-c2ccc3[nH]c(=O)[nH]c3c2)cc1 [Example 164, 4-[3-Chloro-2-(2-oxo-1,3-dihydrobenzimidazol-5-yl)phenyl]benzonitrile]"
6,0.126 µM,"O=c1[nH]c2ccc(-c3c(Cl)cccc3-c3cccnc3)cc2[nH]1 [Example 165, 5-[2-Chloro-6-(3-pyridyl)phenyl]-1,3-dihydrobenzimidazol-2-one]"
7,0.0631 µM,"O=c1[nH]c2ccc(-c3c(Cl)cccc3-c3cncc(F)c3)cc2[nH]1 [Example 166, 5-[2-Chloro-6-(5-fluoro-3-pyridyl)phenyl]-1,3-dihydrobenzimidazol-2-one]"
8,0.316 µM,"O=c1[nH]c2ccc(-c3c(Cl)cccc3-c3ccc(F)nc3)cc2[nH]1 [Example 167, 5-[2-Chloro-6-(6-fluoro-3-pyridyl)phenyl]-1,3-dihydrobenzimidazol-2-one]"
9,0.398 µM,"COc1cncc(-c2cccc(Cl)c2-c2ccc3[nH]c(=O)[nH]c3c2)c1 [Example 168, 5-[2-Chloro-6-(5-methoxy-3-pyridyl)phenyl]-1,3-dihydrobenzimidazol-2-one]"
10,0.251 µM,"O=c1[nH]c2ccc(-c3c(Cl)cccc3-c3cncc(C(F)(F)F)c3)cc2[nH]1 [Example 169, 5-[2-Chloro-6-[5-(trifluoromethyl)-3-pyridyl]phenyl]-1,3-dihydrobenzimidazol-2-one]"
11,0.316 µM,"O=c1[nH]c2ccc(-c3c(Cl)cccc3-c3ccncc3)cc2[nH]1 [Example 170, 5-[2-Chloro-6-(4-pyridyl)phenyl]-1,3-dihydrobenzimidazol-2-one]"
12,1 µM,"COc1cnccc1-c1cccc(Cl)c1-c1ccc2[nH]c(=O)[nH]c2c1 [Example 171, 5-[2-Chloro-6-(3-methoxy-4-pyridyl)phenyl]-1,3-dihydrobenzimidazol-2-one]"
13,2 µM,"COCCn1cc(-c2cccc(Cl)c2-c2ccc3[nH]c(=O)[nH]c3c2)cn1 [Example 172, 5-[2-Chloro-6-[1-(2-methoxyethyl)pyrazol-4-yl]phenyl]-1,3-dihydrobenzimidazol-2-one]"
14,0.398 µM,"Cn1cc(-c2cccc(Cl)c2-c2ccc3[nH]c(=O)[nH]c3c2)cn1 [Example 173, 5-[2-Chloro-6-(1-methylpyrazol-4-yl)phenyl]-1,3-dihydrobenzimidazol-2-one]"
15,0.794 µM,"Cc1noc(C)c1-c1cccc(Cl)c1-c1ccc2[nH]c(=O)[nH]c2c1 [Example 174, 5-[2-Chloro-6-(3,5-dimethylisoxazol-4-yl)phenyl]-1,3-dihydrobenzimidazol-2-one]"
16,1.26 µM,"CC(C)n1nccc1-c1cccc(Cl)c1-c1ccc2[nH]c(=O)[nH]c2c1 [Example 175, 5-[2-Chloro-6-(2-isopropylpyrazol-3-yl)phenyl]-1,3-dihydrobenzimidazol-2-one]"
17,2 µM,"O=c1[nH]c2ccc(-c3c(Cl)cccc3-c3cn[nH]c3)cc2[nH]1 [Example 176, 5-[2-Chloro-6-(1H-pyrazol-4-yl)phenyl]-1,3-dihydrobenzimidazol-2-one]"
18,0.794 µM,"Cc1c(-c2cccc(Cl)c2-c2ccc3[nH]c(=O)[nH]c3c2)cnn1C [Example 177, 5-[2-Chloro-6-(1,5-dimethylpyrazol-4-yl)phenyl]-1,3-dihydrobenzimidazol-2-one]"
19,3.98 µM,"O=c1[nH]c2ccc(-c3c(Cl)cccc3-c3cncnc3)cc2[nH]1 [Example 178, 5-(2-Chloro-6-pyrimidin-5-yl-phenyl)-1,3-dihydrobenzimidazol-2-one]"
20,0.0631 µM,"Cc1cccc(-c2ccccc2)c1-c1ccc2[nH]c(=O)[nH]c2c1 [Example 179, 5-(2-Methyl-6-phenyl-phenyl)-1,3-dihydrobenzimidazol-2-one]"
21,0.316 µM,"Cc1cccc(-c2ccccc2F)c1-c1ccc2[nH]c(=O)[nH]c2c1 [Example 180, 5-[2-(2-Fluorophenyl)-6-methyl-phenyl]-1,3-dihydrobenzimidazol-2-one]"

row,IC50,Compound
1,0.1 µM,"Cc1cccc(-c2ccc(F)cc2)c1-c1ccc2[nH]c(=O)[nH]c2c1 [Example 181, 5-[2-(4-Fluorophenyl)-6-methyl-phenyl]-1,3-dihydrobenzimidazol-2-one]"
2,1.58 µM,"COc1cccc(-c2cccc3cccnc23)c1-c1ccc2[nH]c(=O)[nH]c2c1 [Example 182, 5-[2-Methoxy-6-(8-quinolyl)phenyl]-1,3-dihydrobenzimidazol-2-one]"
3,1.58 µM,"Cn1ccc(-c2cccc(-c3ccc4[nH]c(=O)[nH]c4c3)c2Cl)n1 [Example 183, 5-[2-Chloro-3-(1-methylpyrazol-3-yl)phenyl]-1,3-dihydrobenzimidazol-2-one]"
4,0.126 µM,"O=c1[nH]c2ccc(-c3cccc(-c4ccncc4)c3Cl)cc2[nH]1 [Example 184, 5-[2-Chloro-3-(4-pyridyl)phenyl]-1,3-dihydrobenzimidazol-2-one]"
5,0.0501 µM,"Cn1cc(-c2cccc(-c3ccc4[nH]c(=O)[nH]c4c3)c2Cl)cn1 [Example 185, 5-[2-Chloro-3-(1-methylpyrazol-4-yl)phenyl]-1,3-dihydrobenzimidazol-2-one]"
6,0.00631 µM,"CC(C)(C)OC(=O)N1CCC=C(c2cccc(-c3ccc4[nH]c(=O)[nH]c4c3)c2Cl)C1 [Example 186, tert-Butyl 5-[2-chloro-3-(2-oxo-1,3-dihydrobenzimidazol-5-yl)phenyl]-3,6-dihydro-2H-pyridine-1-carboxylate]"
7,3.16 µM,"O=c1[nH]c2ccc(-c3cccc(-n4ccnc4)c3Cl)cc2[nH]1 [Example 187, 5-(2-Chloro-3-imidazol-1-yl-phenyl)-1,3-dihydrobenzimidazol-2-one]"
8,0.0126 µM,"O=c1[nH]c2ccc(-c3cccc(N4CCCCC4)c3Cl)cc2[nH]1 [Example 188, 5-[2-Chloro-3-(1-piperidyl)phenyl]-1,3-dihydrobenzimidazol-2-one]"
9,3.98 µM,"CN(C)c1cccc(-c2ccc3[nH]c(=O)[nH]c3c2)c1Cl [Example 189, 5-[2-Chloro-3-(dimethylamino)phenyl]-1,3-dihydrobenzimidazol-2-one]"
10,2 µM,"O=c1[nH]c2ccc(-c3cccc(-c4nnco4)c3Cl)cc2[nH]1 [Example 190, 5-[2-Chloro-3-(1,3,4-oxadiazol-2-yl)phenyl]-1,3-dihydrobenzimidazol-2-one]"
11,2 µM,"Cc1nnc(-c2cccc(-c3ccc4[nH]c(=O)[nH]c4c3)c2Cl)o1 [Example 191, 5-[2-Chloro-3-(5-methyl-1,3,4-oxadiazol-2-yl)phenyl]-1,3-dihydrobenzimidazol-2-one]"
12,0.631 µM,"O=c1[nH]c2ccc(-c3c(Cl)ccc(-c4nnco4)c3Cl)cc2[nH]1 [Example 192, 5-[2,6-Dichloro-3-(1,3,4-oxadiazol-2-yl)phenyl]-1,3-dihydrobenzimidazol-2-one]"
13,0.251 µM,"O=c1[nH]c2ccc(-c3cccc(-c4nnco4)c3Br)cc2[nH]1 [Example 193, 5-[2-Bromo-3-(1,3,4-oxadiazol-2-yl)phenyl]-1,3-dihydrobenzimidazol-2-one]"
14,0.501 µM,"Cc1c(-c2ccc3[nH]c(=O)[nH]c3c2)cccc1-c1nnco1 [Example 194, 5-[2-Methyl-3-(1,3,4-oxadiazol-2-yl)phenyl]-1,3-dihydrobenzimidazol-2-one]"
15,2.51 µM,"Cc1nnc(-c2cccc(-c3ccc4[nH]c(=O)[nH]c4c3)c2C)o1 [Example 195, 5-[2-Methyl-3-(5-methyl-1,3,4-oxadiazol-2-yl)phenyl]-1,3-dihydrobenzimidazol-2-one]"
16,0.316 µM,"O=c1[nH]c2ccc(-c3cccc(-c4nnc(C5CC5)o4)c3Cl)cc2[nH]1 [Example 196, 5-[2-Chloro-3-(5-cyclopropyl-1,3,4-oxadiazol-2-yl)phenyl]-1,3-dihydrobenzimidazol-2-one]"
17,0.398 µM,"Cc1c(-c2ccc3[nH]c(=O)[nH]c3c2)cccc1-c1nnc(C2CC2)o1 [Example 197, 5-[3-(5-Cyclopropyl-1,3,4-oxadiazol-2-yl)-2-methyl-phenyl]-1,3-dihydrobenzimidazol-2-one]"
18,0.02 µM,"Cc1c(-c2ccc3[nH]c(=O)[nH]c3c2)cccc1-c1nnc(C(F)(F)F)o1 [Example 198, 5-[2-Methyl-3-[5-(trifluoromethyl)-1,3,4-oxadiazol-2-yl]phenyl]-1,3-dihydrobenzimidazol-2-one]"
19,0.0631 µM,"Cc1c(-c2ccc3[nH]c(=O)[nH]c3c2)cccc1-c1ncno1 [Example 199, 5-[2-Methyl-3-(1,2,4-oxadiazol-5-yl)phenyl]-1,3-dihydrobenzimidazol-2-one]"
20,2.51 µM,"Cc1c(-c2ccc3[nH]c(=O)sc3c2)cccc1-c1ncno1 [Example 200, 6-[2-Methyl-3-(1,2,4-oxadiazol-5-yl)phenyl]-3H-1,3-benzothiazol-2-one]"
21,0.01 µM,"Cc1c(-c2ccc3[nH]c(=O)[nH]c3c2)cccc1-c1nc(C2CC2)no1 [Example 201, 5-(3-(3-cyclopropyl-1,2,4-oxadiazol-5-yl)-2-methylphenyl)-1H-benzo[d]imidazol-2(3H)-one]"

row,Compound,IC50
1,"Cc1c(CN2CC3CC(C2)O3)cccc1-c1ccc2[nH]c(=O)[nH]c2c1 [Example 158, 5-[2-Methyl-3-(6-oxa-3-azabicyclo[3;1;1]heptan-3-ylmethyl)phenyl]-1,3-dihydrobenzimidazol-2-one]",6.31 µM
